In patent US7902252B2, “Inhibitors of D-amino acid oxidase” (Sepracor, Inc., priority 2007, dated 2011):

How the values were obtained:
[1] = system: D-serine levels in the cerebellum; assay: In vivo elevation of D-serine levels in the cerebellum; set-up: species or system Mice (C57BL/6); details: mice, intraperitoneal, dose 30 mg/kg;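 further: Cutoffs are cerebellum D-serine in nmol/g wet tissue weight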
Procedure: […] Animals are sacrificed at either 2 or 6 h post compound administration with an N=3 per time point. At sacrifice, trunk blood is collected into tubes containing potassium EDTA, which are then centrifuged to permit isolation of plasma. The cerebellum is dissected from each animal. Plasma and cerebellum samples are stored at −80° C. until samples are analyzed (LC/MS/MS).

[2] = molecular target: Human DAAO (Homo sapiens, UniProt P14920); assay: D-Amino Acid Oxidase enzyme assay (D-serine, horseradish peroxidase/Amplex Red coupled fluorescence); assay type: biochemical; details: D-serine 5 mM, pH 7.4
Sequence of Human DAAO (P14920 whole entry): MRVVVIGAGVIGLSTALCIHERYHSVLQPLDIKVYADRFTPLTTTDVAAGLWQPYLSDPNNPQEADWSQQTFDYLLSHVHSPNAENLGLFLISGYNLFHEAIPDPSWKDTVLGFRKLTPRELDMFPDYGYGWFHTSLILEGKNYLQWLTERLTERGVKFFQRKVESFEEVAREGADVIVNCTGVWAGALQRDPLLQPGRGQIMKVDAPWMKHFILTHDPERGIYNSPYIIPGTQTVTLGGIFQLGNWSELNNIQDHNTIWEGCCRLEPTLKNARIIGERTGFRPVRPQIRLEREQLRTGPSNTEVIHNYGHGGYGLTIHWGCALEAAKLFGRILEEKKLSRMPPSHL
In short: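 D-serine substrate at 5 mM (Km), 50 mM sodium phosphate pH 7.4; H2O2 output coupled via 4 U/mL horseradish peroxidase and 50 μM Amplex Red to resorufin fluorescence. Reaction started with enzyme; H2O2 control checked coupling interference; IC50 from inhibition curves.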

Structure (SMILES)	Cerebellum D-serine at 2 hours [1]	Cerebellum D-serine at 6 hours [1]	IC50 [2]
O=C(O)c1cc2c([nH]1)C(Cc1cccc(Cl)c1)CC2 (single isomer, unassigned) [Compound 123, 6-(3-chlorobenzyl)-1,4,5,6-tetrahydrocyclopenta[b]pyrrole-2-carboxylic acid]	(+) (2.5-4.9 = (+))	(+) (2.5-4.9 = (+))	≤ 0.1 µM
O=C(O)c1cc2c([nH]1)CCC2Cc1ccc(F)c(F)c1 (single isomer, unassigned) [Compound 44, 4-(3,4-difluorobenzyl)-1,4,5,6-tetrahydrocyclopenta[b]pyrrole-2-carboxylic acid]	(+) (2.5-4.9 = (+))	(+) (2.5-4.9 = (+))	≤ 0.1 µM
O=C(O)c1cc2c([nH]1)CCC2Cc1cccc(-c2ccc[nH]2)c1 (single isomer, unassigned) [Compound 93, 4-(3-(1H-pyrrol-2-yl)benzyl)-1,4,5,6-tetrahydrocyclopenta[b]pyrrole-2-carboxylic acid]	(+) (2.5-4.9 = (+))	(+) (2.5-4.9 = (+))	≤ 0.1 µM
O=C(O)c1cc2c([nH]1)CCC2Cc1ccc2ccccc2c1 (single isomer, unassigned) [Compound 80, 4-(naphthalen-2-ylmethyl)-1,4,5,6-tetrahydrocyclopenta[b]pyrrole-2-carboxylic acid]	(+) (2.5-4.9 = (+))	(+) (2.5-4.9 = (+))	≤ 0.1 µM
